Literature values, collected in patent US12285413B2 (priority 2020, dated 2025).

Columns and labels:
SARS-CoV [1] = conditions: multiple in vitro systems, including primary human airway epithelial cell cultures
SARS-CoV [2] = conditions: mouse, prophylactic and early therapeutic administration
MERS-CoV = conditions: multiple in vitro systems, including primary human airway epithelial cell cultures
glucocorticoid receptor = glucocorticoid receptor (Homo sapiens, UniProt P04150); conditions: relative to cortisol
Chain of glucocorticoid receptor (P04150 whole entry): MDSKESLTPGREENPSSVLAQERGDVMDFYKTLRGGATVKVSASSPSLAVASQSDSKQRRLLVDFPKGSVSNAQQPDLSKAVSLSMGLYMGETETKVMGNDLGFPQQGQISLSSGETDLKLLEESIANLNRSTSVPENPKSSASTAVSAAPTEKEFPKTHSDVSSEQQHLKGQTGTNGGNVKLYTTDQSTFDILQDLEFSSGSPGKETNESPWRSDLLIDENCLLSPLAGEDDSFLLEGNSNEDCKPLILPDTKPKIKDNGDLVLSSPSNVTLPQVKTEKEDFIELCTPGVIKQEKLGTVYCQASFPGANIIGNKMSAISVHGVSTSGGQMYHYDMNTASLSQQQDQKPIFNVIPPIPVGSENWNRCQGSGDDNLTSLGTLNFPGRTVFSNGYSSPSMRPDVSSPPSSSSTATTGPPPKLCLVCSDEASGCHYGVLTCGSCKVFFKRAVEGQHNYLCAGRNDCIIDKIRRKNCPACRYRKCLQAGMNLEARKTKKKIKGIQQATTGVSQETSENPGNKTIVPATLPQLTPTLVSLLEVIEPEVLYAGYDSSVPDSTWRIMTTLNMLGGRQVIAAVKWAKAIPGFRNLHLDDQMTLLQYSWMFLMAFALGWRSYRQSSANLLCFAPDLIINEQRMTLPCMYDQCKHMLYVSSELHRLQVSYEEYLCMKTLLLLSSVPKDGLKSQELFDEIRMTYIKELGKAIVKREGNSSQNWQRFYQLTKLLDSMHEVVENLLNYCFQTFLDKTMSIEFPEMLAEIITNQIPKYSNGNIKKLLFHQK

SMILES: CCN(CCO)CCCC(C)Nc1ccnc2cc(Cl)ccc12 (stereo not shown) [Hydroxychloroquine]
- effect on coronavirus replication in in-vitro systems (coronavirus): inhibitory effects

SMILES: CCC(CC)COC(=O)[C@H](C)N[P@](=O)(OC[C@H]1O[C@@](C#N)(c2ccc3c(N)ncnn23)[C@H](O)[C@@H]1O)Oc1ccccc1 [Remdesivir]
- EC50, inhibition of SARS-CoV replication (SARS-CoV [1]): submicromolar
- lung viral load (SARS-CoV [2]): reduced lung viral load
- respiratory function (SARS-CoV [2]): improved respiratory function
- antiviral activity in SARS-CoV-2 in-vitro models (SARS-CoV-2): antiviral activity
- EC50, inhibition of MERS-CoV replication (MERS-CoV): submicromolar

SMILES: C[C@@H]1C[C@H]2[C@@H]3CCC4=CC(=O)C=C[C@]4(C)[C@@]3(F)[C@@H](O)C[C@]2(C)[C@@]1(O)C(=O)CO [dexamethasone]
- anti-inflammatory and immunosuppressive potency versus cortisol (glucocorticoid receptor): approximately 30 times
